Source: patent publication US4201769A, “Antibiotic substances No. 17927A1 and No. 17927A2 and process for producing the same” (Sankyo Company Limited, priority 1977, dated 1980)
Read-outs that look alike come from different tables or passages of the source. Each block holds one compound with its values, some of them ahead of it.

How the values were obtained:
Type in all cases: cell-based
Proteus rettgeri 1603 = experiment: Synergistic action with Ampicillin or Cephaloridine (MIC)
Method: (§1) (13) Synergistic action: Synergistic action of the substance No. 17927A2 having 0.23 μg/ml of I50 (50% Inhibitory concentration) against β-lactamase produced from Proteus morganii with Cephaloridine or Ampicillin are summarized in Tables 6 and 7.
(§2) (13) Synergistic action: Synergistic action of the substance No. 17927A1 having 0.27 μg/ml of I50 (50% Inhibitory concentration) against β-lactamase produced from Proteus morganii with Cephaloridine are summarized in Table 10.

Escherichia coli 640 = experiment: Synergistic action with Ampicillin (MIC)
Method: as §1

Escherichia coli 718 = experiment: Synergistic action with Ampicillin (MIC)
Method: as §1

Proteus morganii 1510 = experiment: Synergistic action with Cephaloridine (MIC)
Method: as §2

Escherichia coli 609 = experiment: Synergistic action with Cephaloridine (MIC)
Method: as §2

Proteus mirabilis 1332 = experiment: Synergistic action with Cephaloridine (MIC)
Method: as §2

[1] = system: Klebsiella pneumoniae 847; experiment: Synergistic action with Cephaloridine (MIC)
Method: as §1, §2

Proteus inconstans 1708 = experiment: Synergistic action with Cephaloridine (MIC)
Method: as §1, §2

[2] = No. 17927A2 coexisted 0.1 μg/ml
[3] = No. 17927A1 coexisted 0.1 μg/ml
[4] = No. 17927A1 coexisted 0.4 μg/ml

MIC, Ampicillin with No. 17927A2 coexisted (Proteus rettgeri 1603; [2]): 50 µg/mL
MIC (Proteus rettgeri 1603; Providencia rettgeri, 1603, read-out: MIC, Ampicillin alone): 100 µg/mL
MIC (Escherichia coli 640; Escherichia coli, 640, read-out: MIC, Ampicillin alone): 25 µg/mL
MIC, Ampicillin with No. 17927A2 coexisted (Escherichia coli 640; [2]): 1.56 µg/mL
MIC (Escherichia coli 718; Escherichia coli, 718, read-out: MIC, Ampicillin alone): 800 µg/mL
MIC, Ampicillin with No. 17927A2 coexisted (Escherichia coli 718; [2]): 25 µg/mL
SMILES: CC1(C)S[C@@H]2[C@H](NC(=O)[C@H](N)c3ccccc3)C(=O)N2[C@H]1C(=O)O [Ampicillin]

SMILES: O=C(Cc1cccs1)N[C@@H]1C(=O)N2C(C(=O)[O-])=C(C[n+]3ccccc3)CS[C@H]12 [Cephaloridine]
MIC, Cephaloridine with No. 17927A1 coexisted (Proteus rettgeri 1603; [3]): 50 µg/mL
MIC, Cephaloridine with No. 17927A1 coexisted (Proteus rettgeri 1603; [4]): 25 µg/mL
MIC (Proteus rettgeri 1603; Providencia rettgeri, 1603, read-out: MIC, Cephaloridine alone): 1600 µg/mL
MIC (Proteus morganii 1510; Morganella morganii, 1510, read-out: MIC, Cephaloridine alone): 1600 µg/mL
MIC, Cephaloridine with No. 17927A1 coexisted (Proteus morganii 1510; [3]): 50 µg/mL
MIC, Cephaloridine with No. 17927A1 coexisted (Proteus morganii 1510; [4]): 50 µg/mL
MIC (Escherichia coli 609; Escherichia coli, 609, read-out: MIC, Cephaloridine alone): 100 µg/mL
MIC, Cephaloridine with No. 17927A1 coexisted (Escherichia coli 609; [3]): 100 µg/mL
MIC, Cephaloridine with No. 17927A1 coexisted (Escherichia coli 609; [4]): 50 µg/mL
MIC, Cephaloridine with No. 17927A1 coexisted (Proteus mirabilis 1332; [3]): 50 µg/mL
MIC, Cephaloridine with No. 17927A1 coexisted (Proteus mirabilis 1332; [4]): 50 µg/mL
MIC (Proteus mirabilis 1332; Proteus mirabilis, 1332, read-out: MIC, Cephaloridine alone): 100 µg/mL
MIC ([1]; Klebsiella pneumoniae, 847, read-out: MIC, Cephaloridine alone): 100 µg/mL
MIC, Cephaloridine with No. 17927A1 coexisted [1, 3]: 12.5 µg/mL
MIC, Cephaloridine with No. 17927A1 coexisted [1, 4]: 12.5 µg/mL
MIC, Cephaloridine with No. 17927A2 coexisted [1, 2]: 12.5 µg/mL
MIC, Cephaloridine with No. 17927A1 coexisted (Proteus inconstans 1708; [3]): 6.25 µg/mL
MIC, Cephaloridine with No. 17927A1 coexisted (Proteus inconstans 1708; [4]): 3.13 µg/mL
MIC, Cephaloridine with No. 17927A2 coexisted (Proteus inconstans 1708; [2]): 12.5 µg/mL
MIC (Proteus inconstans 1708; Providencia alcalifaciens, 1708, read-out: MIC, Cephaloridine alone): 1600 µg/mL
